Experimental data taken from PMC11758220, “Identification of a Privileged Scaffold for Inhibition of Sterol Transport Proteins through the Synthesis and Ring Distortion of Diverse, Pseudo-Natural Products” (ACS Central Science, 2025).

What was measured:
Format in all cases: binding
Details in all cases: single dose, Dose = 10 µM
ORP1 = target: T1, ORP1 (Homo sapiens, UniProt Q9BXW6); test: Fluorescence polarisation (FP) competition with NBD-cholesterol, ORP1
T1 construct: ORP1(534-950); host or cells: E. coli BL21(DE3)
T1 sequence (Q9BXW6 534-950): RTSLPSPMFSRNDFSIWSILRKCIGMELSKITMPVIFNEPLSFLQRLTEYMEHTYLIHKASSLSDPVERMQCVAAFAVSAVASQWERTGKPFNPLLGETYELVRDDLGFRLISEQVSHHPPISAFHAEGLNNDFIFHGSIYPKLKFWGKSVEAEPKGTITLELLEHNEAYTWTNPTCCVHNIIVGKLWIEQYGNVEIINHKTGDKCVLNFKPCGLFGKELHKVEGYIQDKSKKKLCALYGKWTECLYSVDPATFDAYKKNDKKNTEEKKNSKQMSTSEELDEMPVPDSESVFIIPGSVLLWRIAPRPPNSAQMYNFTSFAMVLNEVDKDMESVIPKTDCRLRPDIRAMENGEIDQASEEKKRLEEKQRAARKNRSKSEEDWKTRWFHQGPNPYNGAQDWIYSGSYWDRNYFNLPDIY
From the text: (§1) Protein expression constructs
(§2) Human ASTER domains of Aster-A(359-547), -B(364-552) and -C(318-504) were subcloned into a pGEX-6p-2rbs vector, thus introducing the cloning artifact ‘GPLGS’.3 The pGEX-6P-1-GST-OSBP(377- […]
(§3) a gift from James H. Hurley (University of California).4 The pHIS_2His6_Thrombin_STARD4(2-205;C75S) plasmid was a gift from Young Jun Im (Chonnam National University).5 STARD5A was a gift from Nicola Burgess-Brown (Addgene plasmid #42392; http://n2t.net/addgene:42392; […]
(§4) Protein expression and purification […]
(§5) vectors including an N-terminal PreScission-cleavable glutathione S-transferase (GST)-tag were expressed in Escherichia coli (E. coli) OverExpress C41 in Terrific Broth (TB) medium for 16 h at 18 °C after the induction with 0.1 mM isopropyl β-D-1-thiogalactopyranoside (IPTG). Cells were harvested at 3500 × g for 15 minutes and lysed by sonication in buffer containing 50 mM HEPES pH 7.5, 300 mM NaCl, 10 %v/v glycerol, 5 mM dithiothreitol (DTT), 0.1 %v/v Triton X-100 and protease inhibitor mix HP plus (Serva). The lysate was purified by affinity chromatography on a GSTrap FF column (Cytiva) using an ÄKTA Start (Cytiva) in buffer containing 50 mM HEPES pH 7.5, 300 mM NaCl, 10 %v/v glycerol, 5 mM DTT and 0.01 %v/v Triton X-100. The GST-tag was cleaved overnight on the column at 4 °C. The Aster sterol binding domains were further purified by size-exclusion chromatography (SEC) on a HiLoad 16/600 Superdex 75 pg (Cytiva) in buffer containing 20 mM HEPES pH 7.5, 300 mM NaCl, 10 %v/v […]
(§6) STARD5(6-213) harboring an N-terminal His6-Tag were expressed in E. coli BL21(DE3) in Luria-Bertani Broth (LB) medium for approximately 16 h at 18 °C after induction with 0.15 mM IPTG. Cells were harvested at 3500 × g for 15 minutes and lysed by sonication in buffer containing 50 mM HEPES pH 7.5, 150 mM NaCl, 5 %v/v glycerol, 5 mM DTT, 0.1 %v/v Triton X -100 and ethylenediaminetetraacetic acid (EDTA)-free protease inhibitor cocktail (Sigma-Aldrich). The cleared lysate was purified by affinity chromatography on a Ni-NTA Superflow Cartridge (Qiagen) using an ÄKTA Start (Cytiva) in buffer containing 50 mM HEPES pH 7.5, 150 mM NaCl, 5 %v/v glycerol, 5 mM DTT. START domains were eluted by using elution buffer containing 50 mM HEPES pH 7.5, 150 mM NaCl, 5 %v/v glycerol, 5 mM DTT and 500 mM imidazole. Proteins were further purified by SEC on a HiLoad 16/600 Superdex 75 pg (Cytiva) in buffer containing 20 mM HEPES pH 7.5, 150 mM NaCl, 5 %v/v glycerol and 2 mM DTT.
(§7) The ORP domain of human OSBP(377-807) in the pGEX-6p-1 vector with an N-terminal PreScission-cleavable GST-tag was expressed in E. coli OverExpress C41 in LB medium for 16 h at 18 °C after induction with 0.1 mM IPTG. Cells were harvested at 3500 × g for 15 minutes and lysed by sonication in buffer containing 20 mM HEPES pH 7.5, 300 mM NaCl, 10 %v/v glycerol, 5 mM DTT, 0.1 %v/v Triton X-100 and EDTA-free protease inhibitor cocktail (Sigma-Aldrich). The cleared lysate was purified by affinity chromatography on a GSTrap HF column (Cytiva) using an ÄKTA Start (Cytiva) in buffer containing 20 mM HEPES pH 7.5, 300 mM NaCl, 10 %v/v glycerol, 5 mM DTT. OSBP(377 -807) was eluted by using elution buffer containing 20 mM HEPES pH 7.5, 300 mM NaCl, 10 %v/v glycerol, 5 mM DTT and 10 mM reduced glutathione. Proteins were further purified by SEC on a HiLoad 16/600 Superdex 75 pg (Cytiva) using an ÄKTA Explorer (Cytiva) in buffer containing 20 mM HEPES pH 7.5, 150 mM NaCl, 10 %v/v glycerol and 2 mM DTT.
(§8) The ORP domains of human ORP1(534-950) in pET24b(+) and ORP2(49-480) in the pET24b(+) vector including an N-terminal His6-Tag were expressed in E. coli BL21(DE3) in TB medium for approximately 16 h at 18 °C after induction with 0.1 mM IPTG. Cells were collected at 3500 × g for 15 minutes and lysed by sonification in buffer containing 10 mM Tris-HCl pH 8, 300 mM NaCl, 5 % glycerol, 2 mM DTT, 0.1 % Triton X-100 and EDTA-free protease inhibitor cocktail (Sigma-Aldrich). The cleared […]

STARD4 = target: T2, STARD4 (Homo sapiens, UniProt Q96DR4, C75S); test: Differential scanning fluorimetry (DSF), STARD4
T2 construct: STARD4(2-205; C75S); made in house; host or cells: E. coli BL21(DE3)
T2 sequence (Q96DR4 2-205 C75S): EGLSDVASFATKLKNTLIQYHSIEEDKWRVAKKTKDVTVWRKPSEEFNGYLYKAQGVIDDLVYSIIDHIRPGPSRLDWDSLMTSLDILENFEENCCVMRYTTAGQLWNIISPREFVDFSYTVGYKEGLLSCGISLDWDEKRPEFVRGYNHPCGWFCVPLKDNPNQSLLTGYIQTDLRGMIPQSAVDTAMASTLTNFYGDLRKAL
From the text: as §1, §2, §3, §4, §5, §6, §7, §8

Aster-C = target: T3, Aster-C (Homo sapiens, UniProt Q8IYS0); test: Fluorescence polarisation (FP) competition with NBD-cholesterol, Aster-C
T3 construct: -C(318-504); GST (PreScission-cleavable) (N, cleaved yes); made in house; host or cells: E. coli OverExpress C41
T3 sequence (Q8IYS0 318-504): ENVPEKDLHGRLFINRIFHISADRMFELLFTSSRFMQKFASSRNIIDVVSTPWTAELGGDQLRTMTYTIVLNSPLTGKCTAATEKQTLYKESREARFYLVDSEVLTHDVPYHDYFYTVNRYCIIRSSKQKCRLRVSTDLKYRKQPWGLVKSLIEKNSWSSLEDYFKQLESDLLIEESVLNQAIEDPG
From the text: as §1, §2, §3, §4, §5, §6, §7, §8

Row | Structure (SMILES) | inhibition at 10 µM (ORP1) [%] | ΔTm at 10 µM (STARD4) [°C] | inhibition at 10 µM (Aster-C) [%] | ORP1 (FP) inhibition (ORP1) [%] | STARD4 (DSF) ΔTm (STARD4) [°C] | Aster-C (FP) inhibition (Aster-C) [%]
1 | C[C@]12CC[C@@H](O)C[C@H]1CCc1sc(N)nc12 [Compound 8a] | -9.2 | -0.00456 | 0 |  |  | 
2 | Cc1nc2c(s1)CC[C@@H]1C[C@H](O)CC[C@]21C [Compound 8b] |  |  |  | -2.5 | 0.0902 | -1.6
3 | C[C@]12CC[C@@H](O)C[C@H]1CCc1sc(-c3cccnc3)nc12 [Compound 8c] |  |  |  | 5.8 | 0.173 | 0
4 | COc1ccc(-c2nc3c(s2)CC[C@@H]2C[C@H](O)CC[C@]32C)cc1 [Compound 8d] | 66.7 | 0.3 | 0.8 |  |  | 
5 | C[C@]12CC[C@@H](O)C[C@H]1CCc1sc(-c3ccc(F)cc3)nc12 [Compound 8e] |  |  |  | 31.7 | 0.7 | -2.4
6 | C[C@]12CC[C@@H](O)C[C@H]1CCc1[nH]c(-c3ccccc3)nc12 [Compound 9] | -0.8 | -0.0502 | -3.2 |  |  | 
7 | C[C@]12CC[C@@H](O)C[C@H]1CCc1c2[nH]c2ccccc12 [Compound 10a] |  |  |  | 28.3 | 0.0293 | 0.8
8 | C[C@]12CC[C@@H](O)C[C@H]1CCc1c2[nH]c2ccc(Br)cc12 [Compound 10b] |  |  |  | 21.7 | 0.2 | -5
9 | C[C@]12CC[C@@H](O)C[C@H]1CCc1c2[nH]c2ccc(Cl)cc12 [Compound 10c] |  |  |  | 24.2 | 0.284 | -8
10 | C[C@]12CC[C@@H](O)C[C@H]1CCc1c2[nH]c2ccc(F)cc12 [Compound 10d] |  |  |  | 28.3 | 0.167 | -3.2
11 | Cc1ccc2[nH]c3c(c2c1)CC[C@@H]1C[C@H](O)CC[C@]31C [Compound 10e] | 27.5 | 0.284 | 1.6 |  |  | 
12 | COc1ccc2[nH]c3c(c2c1)CC[C@@H]1C[C@H](O)CC[C@]31C [Compound 10f] | 11.7 | 0.0284 | 0 |  |  | 
13 | CC12CCC(O)CC1CCc1c2[nH]c2ccc(C(F)(F)F)cc12 (stereo not drawn) [Compound 10g] | 39.2 | 0.00665 | -5 |  |  | 
14 | C[C@]12CC[C@@H](O)C[C@H]1CCc1c2[nH]c2ccc(I)cc12 [Compound 10h] |  |  |  | 35.8 | -0.0169 | 24
15 | C[C@]12CC[C@@H](O)C[C@H]1CCc1c2[nH]c2c(F)cc(Cl)cc12 [Compound 10i] | 14.2 | 0.441 | -1.6 |  |  | 
16 | Cc1cc(C)c2c3c([nH]c2c1)[C@@]1(C)CC[C@@H](O)C[C@H]1CC3 [Compound 10j] | 11.7 | -0.144 | 0.8 |  |  | 
17 | CCOC(=O)c1ccc2[nH]c3c(c2c1)CC[C@@H]1C[C@H](O)CC[C@]31C [Compound 10k] |  |  |  | 10.0 | -0.04 | -6
18 | C[C@]12CC[C@@H](O)C[C@H]1CCC(=O)c1ccccc1NC2=O [Compound 11a] |  |  |  | -2.5 | -0.0281 | -3.2
19 | C[C@]12CC[C@@H](O)C[C@H]1CCC(=O)c1cc(Br)ccc1NC2=O [Compound 11b] | -1.7 | 0.126 | -2.4 |  |  | 
20 | Cc1ccc2c(c1)C(=O)CC[C@@H]1C[C@H](O)CC[C@]1(C)C(=O)N2 [Compound 11c] | -8.3 | -0.0446 | -5.6 |  |  | 
21 | COc1ccc2c(c1)C(=O)CC[C@@H]1C[C@H](O)CC[C@]1(C)C(=O)N2 [Compound 11d] | -3.3 | -0.0249 | 1.6 |  |  | 
22 | C[C@]12CC[C@@H](O)C[C@H]1CCC(=O)c1cc(C(F)(F)F)ccc1NC2=O [Compound 11e] | -3.3 | -0.0316 | -1.6 |  |  | 
23 | C[C@]12CC[C@@H](O)C[C@H]1CCC(=O)c1cc(Cl)cc(F)c1NC2=O [Compound 11f] |  |  |  | -6.7 | -0.0242 | -0.8
24 | Cc1cc(C)c2c(c1)NC(=O)[C@@]1(C)CC[C@@H](O)C[C@H]1CCC2=O [Compound 11g] | -6.7 | 0.464 | -0.8 |  |  | 
25 | Cc1ccc2[nH]c3c(c(=O)c2c1)C[C@@H]1C[C@H](O)CC[C@]31C [Compound 12] | -6.7 | -0.0238 | 0 |  |  | 
26 | Cc1ccc2c(c1)[C@]1(O)CC[C@@H]3C[C@H](O)CC[C@]3(C)C1=N2 [Compound 14a] | 65 | 0.8 | -1 |  |  | 
27 | COc1ccc2c(c1)[C@]1(O)CC[C@@H]3C[C@H](O)CC[C@]3(C)C1=N2 [Compound 14b] | 0 | -0.1 | 3.2 |  |  | 
28 | Cc1cc(C)c2c(c1)N=C1[C@@]2(O)CC[C@@H]2C[C@H](O)CC[C@]12C [Compound 14c] | 0 | -0.0123 | 3.2 |  |  | 
